Assay results: patent publication US10696686B2, “Herbicidally active (alkynyl-phenyl)-substituted cyclic dione compounds and derivatives thereof” (Syngenta Limited, priority 2013, dated 2020)

Tests used:
Type in all cases: in vivo
[1] = system: Abutilon theophrasti (ABUTH); test: Biological Example 1A glasshouse assay, post-emergence application; conditions: 312 h, 13 days after application, read-out: Percentage phytotoxicity ABUTH
Experimental: (§1) Seeds of a variety of test plant species were sown in standard soil ** in pots. After cultivation for one day (pre-emergence) or after 8 days cultivation (post-emergence) under controlled conditions in a glasshouse (at 24/16° C., day/night; 14 hours light; 65% humidity), the plants were sprayed with an aqueous spray solution derived from the formulation of the technical active ingredient (the test herbicide) in acetone/water (50:50) solution containing 0.5% Tween 20 (polyoxyethylene sorbitan monolaurate, CAS Reg. No. 9005-64-5). The test plants were then grown on under controlled conditions in a glasshouse (at 24/16° C., day/night; 14 hours light; 65% humidity) and watered twice daily. 13 Days after application of the test herbicide, for pre- and post-emergence, the test was evaluated visually for percentage phytotoxicity to each plant (where 100%=total damage to plant; 0%=no damage to plant). Generally, each test herbicide is only tested on 1 plant per plant species for each application rate tested and for each application timing. ** The “standard soil” in Biological Example 1 is usually a “sand” or “sandy loam” type of soil.
(§2) Dicotyledonous weeds: ABUTH=Abutilon theophrasti; AMARE=Amaranthus retroflexus. Grassy monocotyledonous weeds: SETFA=Setaria faberi; ALOMY=Alopecurus myosuroides; ECHCG=Echinochloa crus-galli; ZEAMX=Zea mays (corn, maize, e.g. volunteer corn). For Compound A16, the grassy monocotyledonous weed LOLPE (Lolium perenne) was used in the test insterad of ALOMY.

Setaria faberi (SETFA) [2] = test: as above; conditions: for pest or weed control at 250 g/ha / pest or weed control at 30 g/ha: Setaria faberi, 312 h, 13 days after application, read-out: Percentage phytotoxicity SETFA
Experimental: as §1, §2

[3] = system: Alopecurus myosuroides (ALOMY); test: as above; conditions: for Percentage phytotoxicity ALOMY: 13 days after application
Experimental: as §1, §2

[4] = system: Echinochloa crus-galli (ECHCG); test: as above; conditions: 312 h, 13 days after application, read-out: Percentage phytotoxicity ECHCG
Experimental: as §1, §2

[5] = system: Zea mays (ZEAMX, corn, maize, e.g. volunteer corn); test: as above; conditions: for pest or weed control at 250 g/ha / pest or weed control at 30 g/ha: Zea mays, 312 h, 13 days after application, read-out: Percentage phytotoxicity ZEAMX
Experimental: as §1, §2

[6] = system: Amaranthus retroflexus (AMARE); test: as above; conditions: 312 h, 13 days after application, read-out: Percentage phytotoxicity AMARE
Experimental: as §1, §2

[7] = system: Abutilon theophrasti (ABUTH); test: Biological Example 1B glasshouse assay, pre-emergence application; conditions: 250 g/ha, 13 days after application
Experimental: as §1, §2

Setaria faberi (SETFA) [8] = test: as above; conditions: 250 g/ha, 13 days after application
Experimental: as §1, §2

[9] = system: Alopecurus myosuroides (ALOMY); test: as above; conditions: 250 g/ha, 13 days after application
Experimental: as §1, §2

[10] = system: Echinochloa crus-galli (ECHCG); test: as above; conditions: 250 g/ha, 13 days after application
Experimental: as §1, §2

[11] = system: Zea mays (ZEAMX, corn, maize, e.g. volunteer corn); test: as above; conditions: 250 g/ha, 13 days after application
Experimental: as §1, §2

[12] = system: Amaranthus retroflexus (AMARE); test: as above; conditions: 250 g/ha, 13 days after application
Experimental: as §1, §2

[13] = system: grassy (in particular warm climate grassy) monocotyledonous weeds; test: Post-emergence herbicidal activity, summary statements on Biological Examples 1 to 3; conditions: applied at about 250 g/ha post-emergence; Biological Examples 1 and 2
Experimental: as §1
Seeds of a variety of monocotyledonous and dicotyledonous test plants are sown in standard soil in pots. The plants are cultivated for one day (for pre-emergence) or for about 12 days (range=10-13 days) (for post-emergence) under controlled conditions in a glasshouse (warm climate species at 24/18° C., cool climate species at 20/16° C., both at day/night; 16 hours light; 65% humidity). An “instant formulation”, known as the “IF50”, containing 50 g/litre (i.e. 5% w/v) of the “technical” (i.e. unformulated) active ingredient is prepared by dissolving the active ingredient in a mixture of organic solvents and emulsifier, details of which are provided in the Table below. […]
The test plants are then grown on, in a glasshouse (greenhouse) under controlled conditions (at either 24/18° C. or 20/16° C. (day/night) as mentioned above; 16 hours light; 65% humidity) and are watered twice daily. Either 14 or 15 days after application of the herbicide (14 or 15 DAA) (for post-emergence), or 20 days after application of the herbicide (20 DAA) (for pre-emergence), the test plants are evaluated visually, and an assessed percentage phytotoxicity score is given for each herbicidal application on each plant species (where 100%=total damage to plant; 0%=no damage to plant). […]

[14] = applied at about 250 g/ha post-emergence

Row | SMILES | pest or weed control at 250 g/ha [1] [%] | pest or weed control at 250 g/ha (Setaria faberi (SETFA) [2]; post-emergence, 250 g/ha) [%] | Percentage phytotoxicity ALOMY ([3]; 250 g/ha) [%] | pest or weed control at 250 g/ha [4] [%] | pest or weed control at 250 g/ha ([5]; post-emergence, 250 g/ha) [%] | pest or weed control at 250 g/ha [6] [%] | Percentage phytotoxicity ABUTH [7] [%] | Percentage phytotoxicity SETFA (Setaria faberi (SETFA) [8]) [%] | Percentage phytotoxicity ALOMY [9] [%] | Percentage phytotoxicity ECHCG [10] [%] | Percentage phytotoxicity ZEAMX [11] [%] | Percentage phytotoxicity AMARE [12] [%] | post-emergent herbicidal potency against grassy monocotyledonous weeds (in words) [13] | pest or weed control at 30 g/ha [1] [%] | pest or weed control at 30 g/ha (Setaria faberi (SETFA) [2]; post-emergence) [%] | Percentage phytotoxicity ALOMY ([3]; 30 g/ha) [%] | pest or weed control at 30 g/ha [4] [%] | pest or weed control at 30 g/ha ([5]; post-emergence) [%] | pest or weed control at 30 g/ha [6] [%] | further results
1 | C#Cc1cc(F)c(C2C(=O)CC3(CCOCC3)CC2=O)c(OC)c1 [Compound B2] | 0 | 60 | 10 | 30 | 40 | 0 | 0 | 30 | 50 | 40 | 50 | 40 |  |  |  |  |  |  |  | 
2 | CC#Cc1cc(F)c(C2C(=O)CC3(CCOCC3)CC2=O)c(OC)c1 [Compound A14] | 0 | 70 | 40 | 20 | 80 | 10 | 0 | 20 | 40 | 70 | 30 | 20 |  |  |  |  |  |  |  | post-emergent herbicidal potency on SETFA (in words) (Setaria faberi (SETFA) [2]; [14]): potent post-emergent herbicides; herbicidal potency against SETFA compared with compound B2 (in words) (Setaria faberi (SETFA) [2]; post-emergence, 250 g/ha, Biological Example 1A, more potent 'perhaps also' on SETFA): perhaps also; herbicidal potency against ALOMY compared with compound B2 (in words) ([3]; 250 g/ha, Biological Example 1A): more potent herbicide; post-emergent herbicidal potency on ZEAMX (in words) [5, 14]: potent post-emergent herbicides; herbicidal potency against ZEAMX compared with compound B2 (in words) ([5]; post-emergence, 250 g/ha, Biological Example 1A): more potent herbicide
3 | CC#Cc1cc(F)c(C2C(=O)CC(CC(C)SC)CC2=O)c(OC)c1 (stereo not shown) [Compound A12] | 0 | 0 | 0 | 20 | 30 | 0 |  |  |  |  |  |  |  |  |  |  |  |  |  | 
4 | CC#Cc1cc(F)c(C2C(=O)C(C)(C)OC(C)(C)C2=O)c(OC)c1 [Compound A10] | 0 | 90 | 80 | 80 | 90 | 0 | 0 | 70 | 50 | 90 | 50 | 0 | potent post-emergent herbicides | 0 | 70 | 40 | 50 | 40 | 0 | 
5 | CC#Cc1cc(F)c(C2C(=O)CCC2=O)c(OC)c1 [Compound A9] | 30 | 80 | 20 | 70 | 90 | 20 | 0 | 80 | 30 | 80 | 80 | 20 | potent post-emergent herbicides | 0 | 70 | 0 | 60 | 70 | 0 | 
